From PMC7367873, “Dissecting the sequence determinants for dephosphorylation by the catalytic subunits of phosphatases PP1 and PP2A” (Nature Communications, 2020)
Blank lines part the entries; values can stand above or below the compound they belong to.

How the values were obtained:
[1] = tested on: GAB2-pS210; assay: In vitro dephosphorylation of GAB2-pS210 (Western blot); assay type: biochemical, human; settings: GAB2-pS210 relative to GAB2, Calyculin A 20 nM 12 min in HeLa Kyoto cells, recombinant PP1c 1 µM, 1 h at 30 °C in lysate
Protocol: pEGFP(C1)-14-3-3β or pCMV-GAB2-3FLAG was transfected into HeLa Kyoto cells as described in the respective section for 24 h. Cells were incubated with or w/o 20 nM Calyculin A (# 9902 S, Cell Signaling Technology) in complete growth media for 12 min. Cells were washed twice on ice with cold PBS and after addition of 500 µL lysis buffer (100 mM NaCl, 10 mM Tris, 0.1% IGEPAL, 1 mM EDTA, 1 mM EGTA, 20 nM Calyculin A, 1x cOmplete Mini protease inhibitor cocktail (Sigma), 2 mM DTT, 2 mM MnCl2) cells were scraped from plates, lysed by 10 pushes through an injection needle and the insoluble fraction was pelleted by centrifugation (10 min, 10^4 rcf, 4 °C). […] Beads were then washed three times with lysis buffer and samples were eluted in 1x SDS sample buffer by heating to 95 °C for 10 min and further analyzed by SDS PAGE for 14-3-3/GAB2 association and phosphorylation status of GAB2-pS210.
For SDS-PAGE, samples were loaded on NuPAGE™ 4-12% Bis-Tris protein gels (Invitrogen) and gel electrophoresis was performed at 180 V constant in 1x MOPS buffer. […] All blots were quantified using raw images and ImageLab software (v6.0.1, BioRad): Files were imported and analyzed without further modifications. […] The quantification was exported from the analysis table and measurements of background adjusted band volumes where used for further normalization steps and graphical depiction. […]

[2] = tested on: PP1/PP2A; settings: 20 nM Calyculin A in cell culture medium and lysis buffer; ref PMID 30338897; cited from earlier work
Text: page 8: an adjusted p-value <0.01 are highlighted in bold in the heat-map comparing PP1c/PP2Ac. […] Furthermore, this new comparison also brought to our attention an apparently very strong differential effect of Pro in +1. We have therefore synthesized the Cterm peptide AAAApTPFGAK. Like in the case of ba ...

[3] = tested on: GAB2/GFP-14-3-3β interaction; assay: GAB2/14-3-3 binding assay (GFP-14-3-3β pull-down, Western blot); parameters: species or system human
Protocol: pEGFP(C1)-14-3-3β or pCMV-GAB2-3FLAG was transfected into HeLa Kyoto cells as described in the respective section for 24 h. Cells were incubated with or w/o 20 nM Calyculin A (# 9902 S, Cell Signaling Technology) in complete growth media for 12 min. Cells were washed twice on ice with cold PBS and after addition of 500 µL lysis buffer (100 mM NaCl, 10 mM Tris, 0.1% IGEPAL, 1 mM EDTA, 1 mM EGTA, 20 nM Calyculin A, 1x cOmplete Mini protease inhibitor cocktail (Sigma), 2 mM DTT, 2 mM MnCl2) cells were scraped from plates, lysed by 10 pushes through an injection needle and the insoluble fraction was pelleted by centrifugation (10 min, 10^4 rcf, 4 °C). Supernatants were then subjected to incubation with 1 µM recombinant PP1c (if not indicated otherwise) or buffer for 1 h at 30 °C. […] Next, we subjected samples to immunoprecipitation/pull-down using 25 µL of α-FLAG M2 magnetic bead slurry (Sigma-Aldrich) or an equal volume of bead-coupled α-GFP nanobodies (EMBL PEPcore Core Facility) for 2 h at 4 °C. Beads were then washed three times with lysis buffer and samples were eluted in 1x SDS sample buffer by heating to 95 °C for 10 min and further analyzed by SDS PAGE for 14-3-3/GAB2 association and phosphorylation status of GAB2-pS210.
For SDS-PAGE, samples were loaded on NuPAGE™ 4-12% Bis-Tris protein gels (Invitrogen) and gel electrophoresis was performed at 180 V constant in 1x MOPS buffer. Samples were transferred onto CN blotting membranes (0.45 µm, neoLab) by wet blotting. Membranes were stained using Ponceau, followed by blocking with Tris-buffered saline with 0.1% Tween (TBS-T) containing 5% (w/v) non-fat milk for 45 min at room temperature. After three washes (5 min), membranes were then incubated with the following antibodies in TBS-T with 5% BSA overnight at 4 °C: α-GFP (1:2000, Abcam, ab6556), α-GAB2 (1:1000, CST, #3239), α-GAB2-pS210 (1:250, Symansis, customized purification), α-FLAG (1:1000, M2, Sigma-Aldrich, F3165), α-pan14-3-3 (1:500, SCBT, sc-629), α-PP1 (1:1000, SCBT, sc-7482), α-PP2A (1:1000, SCBT, sc-130237) or α-6His (1:2000, Abcam, ab9108). Afterwards blots were washed three times in TBS-T and incubated with goat anti-mouse IgG-peroxidase conjugate (1:2500, Sigma, A0168), donkey anti-rabbit IgG-horseradish peroxidase (HRP) conjugate (1:2500, GE Healthcare, GENA934), or rabbit anti-sheep IgG (H + L) HRP conjugate (1:2500, Thermo Fisher Scientific, 61-8620) for 2 h at room temperature. […] All blots were quantified using raw images and ImageLab software (v6.0.1, BioRad): Files were imported and analyzed without further modifications. […] The quantification was exported from the analysis table and measurements of background adjusted band volumes where used for further normalization steps and graphical depiction. […]

[4] = molecular target: T1, PP1c (Homo sapiens, UniProt P62136); assay: Kinetics of phosphopeptide dephosphorylation by PP1c (EnzChek Phosphate Assay); assay type: biochemical; settings: non-competitive phosphatase activity assay, Supplementary Fig. 3c
T1 construct: His tag with TEV site (N, cleaved yes); intein (pTXB1) (C, cleaved yes); made in house; host or cells: E. coli BL21Star(DE3)pRARE
Protocol: (§1) Prior to library dephosphorylation with subsequent MS analysis, as well as for the confirmation of MS results by directed peptide synthesis and dephosphorylation kinetics, the release of phosphate over time from peptides or libraries had to be monitored: The libraries and peptides were dissolved in 25% DMSO and 75% H2O at 10 mM. The EnzChek Phosphate Assay Kit (Thermo Fisher Scientific) was used to assess the kinetics/dynamics of the library or peptide dephosphorylation by PP1c and PP2Ac. The assay was carried out in a volume of 100 µL reaction buffer (20 mM Tris, 100 mM NaCl, 1 mM DTT, 0.15 units PNP, 0.2 mM MESG,) containing 100 µM phosphopeptide library or indicated concentrations of peptide and 25 nM phosphatase. Because of our goal to identify differences in selectivity, we used equimolar concentrations of the phosphatases. […] The change of absorbance was detected at 360 nm at 25 °C on a Synergy H4 microplate reader using the software Gen5. […] For analysis of enzyme kinetics, raw data were further analyzed in GraphPad Prism v6.
(§2) The datasets of Nterm or Cterm libraries treated with recombinant PP1c and PP2Ac were used. […] Data analysis was carried out in GraphPad Prism v6 and the kcat/Km was calculated by comparison to a phosphate standard. […]

[5] = molecular target: T2, PP2Ac (Homo sapiens, UniProt P67775); assay: Kinetics of phosphopeptide dephosphorylation by PP2Ac (EnzChek Phosphate Assay); assay type: biochemical; settings: non-competitive phosphatase activity assay, Supplementary Fig. 3c
T2 construct: purchased Cayman Chemical 10011237
Protocol: as §1, §2

[6] = tested on: mKate2-GAB2 localization in Caco-2 BBe1 cells; assay: GAB2 recruitment to the plasma membrane, live-cell confocal microscopy, Caco-2 BBe1; assay type: cell-based, human; settings: Caco-2 BBe1, starved, 12 min; EGF 100 ng/mL; PDP-Nal/PDPm-Nal 50 µM; n = 19/13/13 cells for EGF/PDP-Nal/PDPm-Nal
Protocol: (§3) The cells were seeded on 8-well ibiTreat µslides (Ibidi) and transfected as described in the respective section. In order to serum-starve cells for 45 min to 1 h before imaging, cells were washed twice with warm PBS and cultivated in 200 µL DMEM without FBS and phenol red (Gibco) supplemented with 1 g/L L-glutamine and 1% penicillin/streptomycin. For imaging, cells were then mounted in an Okolab stage incubator system (37 °C, 5% CO2 using an H101-CRYO-BL temperature controller, CO2-O2 UNIT-BL gas controller, H101-HM active humidity controller and incubation chamber H101-NIKON-TI-S-ER). All images were acquired with the A1R Confocal Scanning System equipped on a Nikon Ti-E inverted microscope installed with an Apo TIRF 100x DIC N2 1.49 NA Oil objective. […] Images were acquired using the GaAsP detectors controlled with the NIS Elements 4.50 operating software. Time-lapse-experiments consisted of an image acquisition interval of 15 s for at least 12 min for each sample condition separately using an exposure time of 0.5 frames per second. […]
(§4) Supplementary Figure 8. […] For Caco-2 BBe1 the following number (n) of cells were analyzed: 19 (EGF), 13 (PDP-Nal), 13 (PDPm-Nal); for SW-480: 20 (EGF), 19 (PDP-Nal), […]

[7] = tested on: mKate2-GAB2 localization in SW-480 cells; assay: GAB2 recruitment to the plasma membrane, live-cell confocal microscopy, SW-480; assay type: cell-based, human; settings: SW-480, starved, 12 min; EGF 100 ng/mL; PDP-Nal/PDPm-Nal 50 µM; n = 20/19/26 cells for EGF/PDP-Nal/PDPm-Nal
Protocol: as §3, §4

[8] = tested on: mKate2-GAB2 localization in HeLa Kyoto cells; assay: GAB2 recruitment to the plasma membrane, live-cell confocal microscopy, HeLa Kyoto; assay type: cell-based, human; settings: starved, 5 min, EGF 100 ng/mL, PDP-Nal/PDPm-Nal 50 µM, n = 44/56/31 cells for EGF/PDP-Nal/PDPm-Nal
Protocol: The cells were seeded on 8-well ibiTreat µslides (Ibidi) and transfected as described in the respective section. In order to serum-starve cells for 45 min to 1 h before imaging, cells were washed twice with warm PBS and cultivated in 200 µL DMEM without FBS and phenol red (Gibco) supplemented with 1 g/L L-glutamine and 1% penicillin/streptomycin. For imaging, cells were then mounted in an Okolab stage incubator system (37 °C, 5% CO2 using an H101-CRYO-BL temperature controller, CO2-O2 UNIT-BL gas controller, H101-HM active humidity controller and incubation chamber H101-NIKON-TI-S-ER). All images were acquired with the A1R Confocal Scanning System equipped on a Nikon Ti-E inverted microscope installed with an Apo TIRF 100x DIC N2 1.49 NA Oil objective. […] Images were acquired using the GaAsP detectors controlled with the NIS Elements 4.50 operating software. Time-lapse-experiments consisted of an image acquisition interval of 15 s for at least 12 min for each sample condition separately using an exposure time of 0.5 frames per second. Cells were treated after frame 3 by adding 100 µL of starvation media (see above) with 300 ng/mL EGF (Gibco) or 150 µM PDP(m)-Nal resulting in final concentrations of 100 ng/mL for EGF and 50 µM for PDPs.
For image analysis, microscopy files were loaded into Fiji v2.0.0-rc-34/1.50a. […]

T1 sequence (P62136 whole entry): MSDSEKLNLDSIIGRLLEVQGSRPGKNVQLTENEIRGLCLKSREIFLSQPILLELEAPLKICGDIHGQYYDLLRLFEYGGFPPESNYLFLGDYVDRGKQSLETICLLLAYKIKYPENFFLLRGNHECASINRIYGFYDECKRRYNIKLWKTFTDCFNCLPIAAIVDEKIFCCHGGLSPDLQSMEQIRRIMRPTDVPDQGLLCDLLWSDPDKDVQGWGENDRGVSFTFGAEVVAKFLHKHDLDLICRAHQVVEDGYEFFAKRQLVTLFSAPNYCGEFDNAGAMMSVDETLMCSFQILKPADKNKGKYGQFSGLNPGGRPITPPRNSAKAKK
T2 sequence (P67775 1-308 limits assumed): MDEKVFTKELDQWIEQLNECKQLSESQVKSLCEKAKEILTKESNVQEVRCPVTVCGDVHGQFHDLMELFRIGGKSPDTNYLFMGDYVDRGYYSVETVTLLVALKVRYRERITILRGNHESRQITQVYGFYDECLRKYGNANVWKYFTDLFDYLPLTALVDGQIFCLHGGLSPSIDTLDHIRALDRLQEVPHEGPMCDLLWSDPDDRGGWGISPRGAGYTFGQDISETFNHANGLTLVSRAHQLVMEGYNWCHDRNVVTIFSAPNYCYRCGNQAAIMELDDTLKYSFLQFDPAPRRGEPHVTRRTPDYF

Compound: COC[C@@H]([C@H](O)[C@H](O)C(=O)NCC[C@H](C)c1nc(/C=C/C[C@@H]2O[C@]3(C[C@@H](O)[C@@H]2C)O[C@H]([C@H](C[C@H](O)[C@H](C)[C@H](O)[C@H](C)/C=C(C)/C(C)=C/C=C/C(C)=C\C#N)OC)[C@H](OP(=O)(O)O)C3(C)C)co1)N(C)C [Calyculin A, reference compound]
p-level of GAB2 pS210 [1]: increased | stabilization of phosphorylation of PP1/PP2A substrate sites (such as Ser259 of CRAF/Raf-1) [2]: stabilize | interaction of GAB2 with overexpressed GFP-14-3-3β ([3]; Calyculin A 20 nM in cells, recombinant PP1c in lysate 1 h at 30 °C, PP1c-concentration-dependent, three independent experiments): strongly increased | interaction of GAB2 with GFP-14-3-3β, PP1c pre-inhibited ([3]; recombinant PP1c mixed with equimolar Calyculin A for 5–10 min before addition to lysate): abolishes the effect

dephosphorylation by PP1c of peptide with Pro in +1 (in words) [4]: good substrate | dephosphorylation by PP2Ac of peptide with Pro in +1 (in words) [5]: unable to dephosphorylate
Compound: AAAApTPFGAK [Cterm peptide with Pro in +1]

Compound: EGF: epidermal growth factor (Gibco)
GAB2 recruitment to the plasma membrane [6]: GAB2 recruitment to the plasma membrane | GAB2 recruitment to the plasma membrane [7]: GAB2 recruitment to the plasma membrane | GAB2 recruitment to the plasma membrane [8]: GAB2 recruitment to the plasma membrane
